The subject of experiment [1] is bovine type 2 collagen immunized rats. As to the kind of experiment: Collagen-induced arthritis assay, IP injection protocol, ankle diameter. The format is in vivo, rat. Here is the method:
Female Lewis rats (CR) weighing between 125-200 g were immunized with bovine type 2 collagen, 2 mg/ml in a 1:1 solution of 0.01 N acetic acid and Freund's incomplete adjuvant (“FIA”). A 0.1 ml portion of the collagen solution was injected id (intradermally) at three sites on the rat. Rats were immunized with the collagen solution on days 1 and 6 of the study. […] On day 9 (study day “0”), baseline ankle diameters were measured. On days 10-15 (study days 1-6), the rats were then treated, via oral gavage, with either 1, 5, or 25 mg/kg of one of ICI-1259 or ICI-1260, prepared as described below. Ankle diameter measurements were measured on each of days 10-16.
Compounds ICI-1259, ICI-1260, ICI-1505, and ICI-1506 were administered via IP injection to treat collagent-induced arthritis in a variation of the experiments described above. Under the protocol of the IP injection experiments, animal were immunized with Bovine Type 2 collagen as previously described. […] On day 9 (study day “0”), baseline ankle diameters were measured. On days 10-12 (study days 1-3), the rats were then treated once per day, via IP injection, with one of ICI-1259, ICI-1260, ICI-1505, or ICI-1506 at 10 mg/kg. Ankle diameter in the immunized rodents was measured on each of days 10-13 as well as on day 14. […] See FIG. 18 (ICI-1259, ICI-1260, and ICI-1505) and FIG. 19 (ICI-1506).
In a separate study, using the IP injection protocol described above, ICI-1259 and 1260 were each dosed at 2 mg/kg and 0.4 mg/kg.

The target of experiment [2] is T1, 5-HT1D(h) (Homo sapiens, UniProt P28221).
T1 construct: from tissue
As to the kind of experiment: 5-HT receptor binding, displacement of tritiated ligands. To be noted: at 10 μM. As to the method: (§1) 5-HT receptor binding was measured using membrane preparations of brain regions known to be enriched with given 5-HT receptor subtype(s). The assay subsequently measured the displacement of tritiated ligands known to bind to a given 5-HT subtype.
(§2) A receptor binding assay was performed for ICI-1259 and ICI-1260 showing that at 10 μM, these compounds bind receptors 5-HT1A(h), 5-HT1B, 5-HT1D(h), 5-HT2A, 5-HT2A(h), 5-HT2B, 5-HT2C, 5-HT3,5-HT3(h), 5-HT4, 5-HT5A(h), 5-HT6, and 5-HT7.

Experiment [3] deals with 5-HT6. The description is as above. To be noted: at 10 μM. Here is the method:
as §1, §2

The target of experiment [4] is T2, 5-HT2A(h) (Homo sapiens, UniProt P28223).
T2 construct: from tissue
The experiment is described as above. To be noted: at 10 μM. As to the method: as §1, §2

For experiment [5], the system named is 5-HT1B. The description is as above. The note with it: at 10 μM. Here is the method:
as §1, §2

Experiment [6] addresses T3, 5-HT5A(h) (Homo sapiens, UniProt P47898).
T3 construct: from tissue
The description is as above. The note with it: at 10 μM. Here is the method:
as §1, §2

Experiment [7] deals with 5-HT2A. Described as above. The note with it: at 10 μM. As to the method:
as §1, §2

Experiment [8] deals with T4, 5-HT1A(h) (Homo sapiens, UniProt P08908).
T4 construct: from tissue
T4 sequence (P08908 1-422): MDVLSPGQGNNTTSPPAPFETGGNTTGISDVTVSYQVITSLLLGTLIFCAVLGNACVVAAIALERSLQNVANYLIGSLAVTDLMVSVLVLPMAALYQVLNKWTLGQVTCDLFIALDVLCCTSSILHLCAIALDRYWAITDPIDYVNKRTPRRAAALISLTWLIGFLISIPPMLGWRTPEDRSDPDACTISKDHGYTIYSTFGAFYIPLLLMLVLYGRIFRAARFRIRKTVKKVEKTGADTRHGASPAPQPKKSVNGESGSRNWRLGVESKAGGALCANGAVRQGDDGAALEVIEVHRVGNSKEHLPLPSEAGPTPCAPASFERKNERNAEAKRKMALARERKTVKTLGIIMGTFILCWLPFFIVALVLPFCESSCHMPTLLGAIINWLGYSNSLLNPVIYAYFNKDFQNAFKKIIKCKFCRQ
The description is as above. The note with it: at 10 μM. As to the method: as §1, §2

Experiment [9] relates to 5-HT2C. The description is as above. To be noted: at 10 μM. As to the method: as §1, §2
Experiment [10] deals with 5-HT4. The experiment is described as above. To be noted: at 10 μM. Here is the method:
as §1, §2

The target of experiment [11] is T5, 5-HT2B (Homo sapiens, UniProt P41595).
T5 construct: from tissue
The description is as above. To be noted: at 10 μM. As to the method:
as §1, §2

Experiment [12] relates to 5-HT7. The experiment is described as above. The note with it: at 10 μM. Here is the method: as §1, §2
Experiment [13] concerns the target T6, 5-HT3(h) (Homo sapiens, UniProt P46098).
T6 construct: from tissue
T6 sequence (P46098 24-478): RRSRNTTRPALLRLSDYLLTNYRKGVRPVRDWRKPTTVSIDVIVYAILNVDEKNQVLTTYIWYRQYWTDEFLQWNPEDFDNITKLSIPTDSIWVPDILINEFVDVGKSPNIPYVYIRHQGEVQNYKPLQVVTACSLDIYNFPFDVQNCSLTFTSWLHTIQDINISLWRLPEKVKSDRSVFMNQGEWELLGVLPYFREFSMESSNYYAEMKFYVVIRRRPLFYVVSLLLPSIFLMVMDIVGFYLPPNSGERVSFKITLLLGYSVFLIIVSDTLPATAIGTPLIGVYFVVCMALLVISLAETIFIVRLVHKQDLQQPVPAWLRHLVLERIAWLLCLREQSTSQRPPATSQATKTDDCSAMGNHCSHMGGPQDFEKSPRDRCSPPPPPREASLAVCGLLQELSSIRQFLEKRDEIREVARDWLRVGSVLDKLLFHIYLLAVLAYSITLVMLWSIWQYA
The experiment is described as above. To be noted: at 10 μM. As to the method: as §1, §2

Experiment [14] deals with 5-HT3. The description is as above. The note with it: at 10 μM. Here is the method: as §1, §2
[15] abbreviates: IP injection 2 mg/kg, study days 3 and 4.
Setting [16] is: IP injection 10 mg/kg once per day, study days 1-3, observed on study days 2-4.

The structures appear in SMILES notation.

T2 sequence (P28223 whole entry): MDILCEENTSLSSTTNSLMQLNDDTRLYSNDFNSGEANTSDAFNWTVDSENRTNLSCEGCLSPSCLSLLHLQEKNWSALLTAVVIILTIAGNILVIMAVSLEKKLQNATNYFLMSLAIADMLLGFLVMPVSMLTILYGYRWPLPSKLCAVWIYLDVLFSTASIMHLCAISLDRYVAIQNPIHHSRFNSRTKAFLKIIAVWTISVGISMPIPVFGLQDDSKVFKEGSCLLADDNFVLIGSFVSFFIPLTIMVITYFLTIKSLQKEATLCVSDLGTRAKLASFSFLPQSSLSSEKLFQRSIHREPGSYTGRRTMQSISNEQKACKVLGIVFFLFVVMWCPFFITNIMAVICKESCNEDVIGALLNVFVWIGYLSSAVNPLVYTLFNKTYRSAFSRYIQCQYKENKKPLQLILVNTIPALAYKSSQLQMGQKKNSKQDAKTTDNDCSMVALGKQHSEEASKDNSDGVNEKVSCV
T1 sequence (P28221 whole entry): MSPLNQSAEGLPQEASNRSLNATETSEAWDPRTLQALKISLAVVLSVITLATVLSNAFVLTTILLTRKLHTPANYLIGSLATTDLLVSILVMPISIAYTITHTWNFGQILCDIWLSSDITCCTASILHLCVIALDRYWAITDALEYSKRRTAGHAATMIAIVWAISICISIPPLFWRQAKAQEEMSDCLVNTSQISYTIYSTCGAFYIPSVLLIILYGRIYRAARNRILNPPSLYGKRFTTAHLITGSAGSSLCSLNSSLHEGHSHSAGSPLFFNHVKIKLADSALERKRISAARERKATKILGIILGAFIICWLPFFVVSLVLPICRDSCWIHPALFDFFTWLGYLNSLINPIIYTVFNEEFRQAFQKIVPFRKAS
T3 sequence (P47898 whole entry): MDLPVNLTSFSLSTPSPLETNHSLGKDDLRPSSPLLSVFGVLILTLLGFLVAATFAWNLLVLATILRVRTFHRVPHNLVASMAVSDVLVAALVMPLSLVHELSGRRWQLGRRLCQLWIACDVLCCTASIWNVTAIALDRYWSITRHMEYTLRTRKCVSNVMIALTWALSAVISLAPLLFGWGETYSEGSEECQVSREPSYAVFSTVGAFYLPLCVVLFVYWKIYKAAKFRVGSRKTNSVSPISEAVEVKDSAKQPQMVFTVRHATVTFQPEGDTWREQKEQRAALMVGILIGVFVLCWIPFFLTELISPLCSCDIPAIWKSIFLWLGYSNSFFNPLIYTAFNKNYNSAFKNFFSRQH
T5 sequence (P41595 whole entry, species assumed): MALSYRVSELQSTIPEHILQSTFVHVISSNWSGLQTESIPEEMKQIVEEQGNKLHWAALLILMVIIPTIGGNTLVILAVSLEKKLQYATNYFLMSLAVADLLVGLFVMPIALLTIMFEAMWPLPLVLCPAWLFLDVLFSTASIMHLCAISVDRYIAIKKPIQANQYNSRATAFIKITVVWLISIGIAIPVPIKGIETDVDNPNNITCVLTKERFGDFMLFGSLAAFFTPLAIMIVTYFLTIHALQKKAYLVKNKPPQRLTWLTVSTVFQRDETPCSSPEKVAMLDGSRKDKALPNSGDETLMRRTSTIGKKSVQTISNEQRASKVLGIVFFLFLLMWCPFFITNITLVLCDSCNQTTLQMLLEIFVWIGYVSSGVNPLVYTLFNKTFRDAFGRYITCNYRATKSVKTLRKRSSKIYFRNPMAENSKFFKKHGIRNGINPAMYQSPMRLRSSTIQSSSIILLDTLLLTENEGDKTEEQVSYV

On to `CNCC(=O)NCCCN1CCC(CCCN2c3ccccc3Sc3ccc(C(F)(F)F)cc32)CC1` [ICI-1259, 2-(methylamino)-N-(3-(4-(3-(2-(trifluoromethyl)-10H-phenothiazin-10-yl)propyl)piperidin-1-yl)propyl)acetamide], for which the entries for the “reduction in ankle swelling (ankle diameter)” value in experiment [1] (IP injection 0.4 mg/kg), in [1] (setting [15]) and in experiment [1] (setting [16]) were “Statistically significant results were only observed for ICI-1260 at 2 mg/kg”, “Statistically significant results were only observed for ICI-1260 at 2 mg/kg” and “statistically significant results were observed”, respectively. For the same compound, the receptor binding entry in experiment [2], in experiment [3], in experiment [4], in experiment [5], in [6] and in [7] was “bind” throughout. In addition, the receptor binding result in experiment [8], in experiment [9], in experiment [10], in experiment [11], in [12] and in experiment [13] was “bind” in each case. In addition, the receptor binding entry in [14] is “bind”.
Regarding `NCC(=O)NCCCN1CCC(CCCN2c3ccccc3Sc3ccc(C(F)(F)F)cc32)CC1` [ICI-1260, 2-amino-N-(3-(4-(3-(2-(trifluoromethyl)-10H-phenothiazin-10-yl)propyl)piperidin-1-yl)propyl)acetamide], the “reduction in ankle swelling (ankle diameter)” value is “Statistically significant results were only observed for ICI-1260 at 2 mg/kg” in experiment [1] (IP injection 0.4 mg/kg), “Statistically significant results” in experiment [1] (setting [15]) and “statistically significant results were observed” in [1] (setting [16]). In addition, the receptor binding entry in experiment [2], in [3], in [4], in experiment [5], in experiment [6] and in [7] was “bind” each time. Also, the receptor binding entry in [8], in experiment [9], in experiment [10], in experiment [11], in experiment [12] and in experiment [13] was “bind” throughout. For the same compound, the receptor binding entry in experiment [14] is listed as “bind”.

Values taken from patent US20090275557A1, “Novel Composition for Treatment of Diseases Related to Activated Lymphocytes” (Immune Control, Inc., priority 2008, published 2009).
